According to PubChem BioAssay (NCI):
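96-well plates; 48 h exposure; 5 concentrations. Endpoints by linear interpolation between flanking doses. Not reached: highest tested concentration assigned. GI50 marks 50% less growth. TGI: concentration producing complete growth inhibition.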

Legend:
Experiment in all cases: NCI-60 cell line screen, 48 h
[1] = test system: 786-0 renal
[2] = test system: A549 NSCLC
[3] = test system: COLO 205 colon
[4] = test system: HCT-15 colon
[5] = test system: KM12 colon
[6] = test system: MOLT-4 leukemia
[7] = test system: RXF 393 renal
[8] = test system: SK-MEL-5 melanoma
[9] = test system: SW-620 colon
[10] = test system: K-562 leukemia

SMILES | GI50 [1] | TGI [1] | GI50 [2] | TGI [2] | GI50 [3] | TGI [3] | GI50 [4] | TGI [4] | GI50 [5] | TGI [5] | GI50 [6] | TGI [6] | GI50 [7] | TGI [7] | GI50 [8] | TGI [8] | GI50 [9] | TGI [9] | TGI [10] | GI50 [10]
Cn1nnnc1[N-]Cc1ccccc1.[Au+].c1ccc([PH+](c2ccccc2)c2ccccc2)cc1 | 1.71 µM | 3.37 µM | 21.2 µM | 71.3 µM | 2.29 µM | 5.81 µM | 2.53 µM | 9.18 µM | 11.1 µM | 38 µM | 1.67 µM | 4.75 µM | 1.29 µM | 2.68 µM | 1.6 µM | 3.6 µM | 2.19 µM | 4.92 µM |  | 
NC(=O)c1ccccc1NC(=O)C(=O)C(c1cnc2ccc([N+](=O)[O-])cc2n1)[N+](=O)[O-] (centres undefined) |  | > 100 µM |  | > 100 µM |  |  |  | > 100 µM |  | > 100 µM |  | > 100 µM |  | > 100 µM |  | > 100 µM |  | > 100 µM | > 100 µM | 
O=c1oc2c3ccc4ccccc4c3n(Cc3nc4ccccc4[nH]3)c2c2ccccc12 |  | > 47.9 µM |  | > 100 µM |  | > 100 µM |  | > 100 µM |  | > 100 µM |  | > 100 µM |  | > 100 µM |  |  |  | > 100 µM | > 100 µM | 
CCC(=O)N1C/C(=C/c2ccc(OC)cc2)C(=O)/C(=C/c2ccc(OC)cc2)C1 | 1.87 µM | 3.72 µM |  |  | 1.99 µM | 3.65 µM | 2.03 µM | 5.31 µM | 1.38 µM | 2.85 µM | 3.31 µM | > 100 µM | 1.72 µM | 3.17 µM | 1.62 µM | 3.04 µM | 1.66 µM | 3.64 µM | > 100 µM | 1.19 µM
O=C(Nc1ccc(Br)cc1)c1cc(Br)cc(Br)c1O | 3.02 µM | 29.7 µM | 2.65 µM | 7.9 µM | 2.33 µM | 4.59 µM | 3.2 µM | 13.5 µM | 2.59 µM | 8.09 µM | 3.83 µM | > 100 µM |  |  | 2.15 µM | 4.57 µM | 3.39 µM | 12.6 µM | > 100 µM | 3.1 µM
COc1cc2ccc3c4cc(OC)c(OCc5ccccc5)cc4cnc3c2cc1OC |  | > 100 µM |  | > 100 µM |  | > 100 µM |  |  |  | > 100 µM |  | > 100 µM |  |  |  | > 100 µM |  | > 100 µM | > 100 µM | 
c1ccc2c(NCCCCCCCCNc3c4ccccc4nc4ccccc34)c3ccccc3nc2c1 |  | 1.95 µM |  |  |  | 1.61 µM |  | 2.48 µM |  | 1.59 µM |  |  |  | 0.387 µM |  | 2.71 µM |  | 1.71 µM |  | 
O=C(N/N=C/c1ccc(F)cc1)c1[nH]c2ccc(I)cc2c1-c1ccccc1 | 0.475 µM | 10.7 µM | 0.76 µM | > 54.5 µM | 0.482 µM | 1.7 µM | 0.39 µM | > 58.3 µM | 0.385 µM | 2.11 µM | 1.24 µM | > 36.9 µM |  |  | 0.417 µM | 2.52 µM | 0.4 µM | > 100 µM |  | 0.325 µM
